We go through 11 molecules from ChEMBL document CHEMBL1201862, “PubChem BioAssay data set” (2004).

Among the test systems are HT-29; Hs-578T; SW-620; CAKI-1; U-251; HCC 2998; T47D; MCF7; SK-MEL-5; MDA-N; PC-3; SNB-19; SF-539; MOLT-4; CCRF-CEM; NCI-H522; DU-145; NCI/ADR-RES; K562.
What all share (assay): NCI anticancer screen, dose series, 48 h

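Protocol summary: plate cells (96-well), add compound at 5 concentrations, incubate 48 h, interpolate endpoints linearly. Abbreviation: GI50, concentration required for 50% inhibition of growth.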 Active and inactive are the calls of the source. Cut-off read from the data, not from the text of the source: active = GI50 up to about 1.1 µM and inactive = higher.

Regarding `CCC(NC1=NCCO1)c1cccs1` (centres undefined), the GI50 with HT-29 was 19.7 µM (inactive); in the assay on Hs-578T, 11.2 µM (inactive); in the assay on SW-620 it was 24.3 µM (inactive); in the assay with CAKI-1, 17.2 µM (inactive); in the assay with U-251, 13.5 µM (inactive); with HCC 2998 it was 15.5 µM (inactive). Moreover, the GI50 with T47D was 16.4 µM (inactive); in the assay with MCF7, 15.6 µM (inactive); in the assay on SK-MEL-5, 16.8 µM (inactive); with MDA-N it was 14.6 µM (inactive); in the assay with PC-3, 13.4 µM (inactive); with SNB-19, 16.3 µM (inactive). In addition, the GI50 was 15.5 µM (inactive) with SF-539; > 100 µM (inactive) in the assay with MOLT-4; 7.36 µM (inactive) in the assay with CCRF-CEM; 19.5 µM (inactive) with NCI-H522; 13.7 µM (inactive) with DU-145; 43.1 µM (inactive) in the assay with NCI/ADR-RES. Further, the GI50 with K562 is 5.55 µM (inactive).

As for `NS(=O)(=O)c1ccc(NC(=O)N/N=C/c2ccccc2[N+](=O)[O-])cc1`, the GI50 was 30.1 µM (inactive) in the assay on HT-29; 46.6 µM (inactive) in the assay with Hs-578T; 36.1 µM (inactive) in the assay with SW-620; 44.8 µM (inactive) in the assay with CAKI-1; 43.1 µM (inactive) in the assay on U-251; 33.9 µM (inactive) in the assay on HCC 2998. The GI50 was 57.4 µM (inactive) in the assay on T47D; 29.7 µM (inactive) in the assay on MCF7; 65.5 µM (inactive) with SK-MEL-5; 19.4 µM (inactive) in the assay with MDA-N; 35.6 µM (inactive) in the assay on PC-3; 44 µM (inactive) in the assay on SNB-19. Also, the GI50 is 38.5 µM (inactive) in the assay on SF-539; 39.8 µM (inactive) with MOLT-4; 25.9 µM (inactive) in the assay on CCRF-CEM; 41.8 µM (inactive) with NCI-H522; 72.3 µM (inactive) in the assay on DU-145; 33.3 µM (inactive) in the assay with NCI/ADR-RES. Also, in the assay on K562, the GI50 is 28.8 µM (inactive).

As for `COc1cc(C)c(C2NC(=O)c3ccccc3N2)cc1C` (centres undefined), the GI50 was 0.321 µM (active) in the assay with HT-29; 0.234 µM (active) in the assay on Hs-578T; 0.303 µM (active) with SW-620; 0.252 µM (active) with CAKI-1; 0.396 µM (active) in the assay with U-251; 1.33 µM (inactive) in the assay on HCC 2998. For the same molecule, the GI50 in the assay on T47D is 0.447 µM (active); in the assay on MCF7, 0.957 µM (active); in the assay with SK-MEL-5 it was 0.135 µM (active); in the assay on MDA-N, 0.0283 µM (active); with PC-3 it was 0.265 µM (active); with SNB-19 it was 0.468 µM (active). In addition, the GI50 with SF-539 is 0.229 µM (active); in the assay on MOLT-4 it was 1.04 µM (active); in the assay on CCRF-CEM, 0.352 µM (active); in the assay with NCI-H522, 0.254 µM (active); in the assay on DU-145, 0.4 µM (active); in the assay on NCI/ADR-RES it was 0.149 µM (active). Also, in the assay with K562, the GI50 was 0.125 µM (active).

In the case of `CC(C)(C)OCC1NC(=O)[C@@H]2Cc3c([nH]c4ccccc34)C(c3ccccc3)N2C1=O` (some centres undefined), the GI50 in the assay on HT-29, in the assay with Hs-578T, in the assay with SW-620, in the assay with CAKI-1, in the assay with U-251 and in the assay with HCC 2998 was > 50 µM (inactive) each time. Further, the GI50 in the assay on T47D, in the assay on MCF7, in the assay with SK-MEL-5, with MDA-N, with PC-3 and with SNB-19 was > 50 µM (inactive) each time. For the same molecule, the GI50 is 30.1 µM (inactive) in the assay on SF-539; 16.2 µM (inactive) in the assay with MOLT-4; > 50 µM (inactive) in the assay with CCRF-CEM; > 50 µM (inactive) in the assay on NCI-H522; > 50 µM (inactive) in the assay on DU-145; > 50 µM (inactive) in the assay on NCI/ADR-RES. Moreover, the GI50 with K562 was > 30.1 µM (inactive).

`Cc1cccc2c1C(=O)/C(=C/c1ccccc1C(=O)O)C2`: the GI50 with HT-29, in the assay with Hs-578T, with SW-620, in the assay with CAKI-1, in the assay on U-251 and in the assay on HCC 2998 was > 100 µM (inactive) in each case. Further, the GI50 was > 100 µM (inactive) in the assay with T47D; > 100 µM (inactive) with MCF7; 37.5 µM (inactive) with SK-MEL-5; > 100 µM (inactive) with MDA-N; > 100 µM (inactive) in the assay on PC-3; > 100 µM (inactive) with SNB-19. The GI50 in the assay on SF-539, in the assay with MOLT-4, in the assay with CCRF-CEM, with NCI-H522, with DU-145 and with NCI/ADR-RES was > 100 µM (inactive) each time. Also, the GI50 with K562 is > 100 µM (inactive).

On to `CCOC(=O)CC1c2ccc(O)cc2OC(=O)C1c1ccc([N+](=O)[O-])cc1` (centres undefined), for which the GI50 in the assay with HT-29 was 35.2 µM (inactive); with Hs-578T, 46.7 µM (inactive); in the assay with SW-620, 65.6 µM (inactive); in the assay with CAKI-1 it was 43 µM (inactive); in the assay on U-251 it was 35.8 µM (inactive); in the assay with HCC 2998, 20.3 µM (inactive). For the same molecule, the GI50 is 15.8 µM (inactive) in the assay on T47D; 14.8 µM (inactive) in the assay with MCF7; 15.4 µM (inactive) in the assay on SK-MEL-5; 28.6 µM (inactive) in the assay on MDA-N; 22.5 µM (inactive) in the assay with PC-3; 63.5 µM (inactive) in the assay with SNB-19. The GI50 in the assay on SF-539 was 31 µM (inactive); in the assay with MOLT-4, 22.8 µM (inactive); with CCRF-CEM, 22.8 µM (inactive); in the assay with NCI-H522 it was 18.6 µM (inactive); in the assay with DU-145, 48.9 µM (inactive); with NCI/ADR-RES, 27 µM (inactive). In addition, in the assay with K562, the GI50 is 30.4 µM (inactive).

In the case of `Clc1nc2c(-c3cccs3)ncnc2n1Cc1ccccc1`, the GI50 was 39.8 µM (inactive) in the assay with HT-29; 22.8 µM (inactive) in the assay on Hs-578T; > 30.3 µM (inactive) in the assay with SW-620; 3.08 µM (inactive) with CAKI-1; 38.5 µM (inactive) in the assay with U-251; 3.21 µM (inactive) in the assay on HCC 2998. Further, the GI50 in the assay with T47D was 10.1 µM (inactive); in the assay with MCF7 it was 6.04 µM (inactive); with SK-MEL-5, 24.9 µM (inactive); in the assay on MDA-N, 42.6 µM (inactive); in the assay on PC-3 it was 26.2 µM (inactive); with SNB-19, 27.4 µM (inactive). In addition, the GI50 was 40 µM (inactive) with SF-539; 37.5 µM (inactive) in the assay with MOLT-4; > 68.1 µM (inactive) with CCRF-CEM; 19.4 µM (inactive) in the assay on NCI-H522; 2.49 µM (inactive) in the assay on DU-145; 46.3 µM (inactive) with NCI/ADR-RES. Besides, the GI50 in the assay on K562 was 57.3 µM (inactive).

With `COC(=O)c1ccc(NCC2=CC(=O)c3ccccc3C2=O)cc1`, the GI50 with HT-29 was 25.7 µM (inactive); with Hs-578T it was 28.6 µM (inactive); with SW-620 it was 22.2 µM (inactive); with CAKI-1 it was 11.6 µM (inactive); with U-251, 22.9 µM (inactive); in the assay on HCC 2998, 19.4 µM (inactive). For the same molecule, the GI50 is 12.2 µM (inactive) in the assay with T47D; 18.4 µM (inactive) in the assay on MCF7; 11.7 µM (inactive) with SK-MEL-5; 9.23 µM (inactive) in the assay on MDA-N; 14.3 µM (inactive) with PC-3; 31.4 µM (inactive) in the assay with SNB-19. In addition, the GI50 in the assay with SF-539 was 23.4 µM (inactive); in the assay on MOLT-4, 3.01 µM (inactive); with CCRF-CEM, 2.04 µM (inactive); in the assay on NCI-H522, 13.2 µM (inactive); with DU-145, 16.5 µM (inactive); with NCI/ADR-RES, 27.5 µM (inactive). For the same molecule, the GI50 in the assay on K562 is 3.44 µM (inactive).

For the molecule `Cc1cccc(/C=N/NC(=S)NC(C)(C)C)n1`, the GI50 in the assay on HT-29 was 3.12 µM (inactive); in the assay with Hs-578T, > 100 µM (inactive); with SW-620 it was 16 µM (inactive); in the assay with CAKI-1 it was > 100 µM (inactive); in the assay on U-251, 93.3 µM (inactive); with HCC 2998, 56.1 µM (inactive). Further, the GI50 in the assay on T47D is 6.24 µM (inactive); in the assay with MCF7, 18.5 µM (inactive); in the assay with SK-MEL-5, 56.1 µM (inactive); in the assay on MDA-N it was > 100 µM (inactive); in the assay on PC-3, 23.7 µM (inactive); with SNB-19, > 100 µM (inactive). The GI50 in the assay with SF-539 is > 100 µM (inactive); in the assay on MOLT-4, 4.72 µM (inactive); in the assay on CCRF-CEM it was 1.64 µM (inactive); in the assay with NCI-H522, 14.5 µM (inactive); with DU-145 it was 66.8 µM (inactive); in the assay with NCI/ADR-RES it was 33.7 µM (inactive). Further, in the assay with K562, the GI50 is 5.15 µM (inactive).

Consider `Cc1ccc2c(c1)[nH]c(=S)n2/C=C1\C(=O)Oc2ccccc2C1=O`, for which the GI50 in the assay on HT-29 is 57.5 µM (inactive); with Hs-578T, 25.5 µM (inactive); in the assay on SW-620, 52.6 µM (inactive); with CAKI-1, 19.6 µM (inactive); with U-251, 53.1 µM (inactive); in the assay with HCC 2998, > 100 µM (inactive). The GI50 in the assay on T47D was 89.1 µM (inactive); with MCF7, > 100 µM (inactive); in the assay with SK-MEL-5 it was 40.6 µM (inactive); in the assay with MDA-N, 90.6 µM (inactive); in the assay on PC-3 it was 76.7 µM (inactive); in the assay on SNB-19, 86.5 µM (inactive). Further, the GI50 was 69.7 µM (inactive) in the assay on SF-539; 38.2 µM (inactive) in the assay with MOLT-4; 34.8 µM (inactive) in the assay on CCRF-CEM; 38.7 µM (inactive) in the assay on NCI-H522; 41.3 µM (inactive) with DU-145; 56.2 µM (inactive) in the assay on NCI/ADR-RES. Moreover, the GI50 in the assay with K562 was 52.2 µM (inactive).

Turning to `CC(=O)Nc1n[n+]([O-])c2cc(C)ccc2[n+]1[O-]`, the GI50 was 2.52 µM (inactive) in the assay with HT-29; 6.61 µM (inactive) in the assay on Hs-578T; 2.41 µM (inactive) with SW-620; 2.52 µM (inactive) with CAKI-1; 2.92 µM (inactive) in the assay with U-251; 3.84 µM (inactive) in the assay with HCC 2998. The GI50 with T47D was 2.34 µM (inactive); in the assay with MCF7, 0.296 µM (active); with SK-MEL-5 it was 1.51 µM (inactive); in the assay on MDA-N, 3.56 µM (inactive); in the assay on PC-3, 1.81 µM (inactive); in the assay on SNB-19, 4.98 µM (inactive). In addition, the GI50 in the assay with SF-539 was 1.99 µM (inactive); in the assay with MOLT-4, 1.49 µM (inactive); in the assay with CCRF-CEM, 2.05 µM (inactive); in the assay on NCI-H522, 2.05 µM (inactive); in the assay with DU-145, 4.71 µM (inactive); with NCI/ADR-RES, 5.79 µM (inactive). Moreover, the GI50 in the assay on K562 is 1.94 µM (inactive).
